{
  "source": "patent US20240415829A1",
  "about": "“METHODS AND COMPOSITIONS FOR THE TREATMENT OF DRUG OVERDOSE” (priority 2023, published 2024)",
  "origin": "cited, not measured here",
  "key": {"[1]": {"settings": "human clinical trials"}, "[2]": {"settings": "xylazine 0.15 mg/kg, sheep 58-69 kg"}, "[3]": {"settings": "results from other studies; individuals with OUD, tobacco use disorder, AUD"}},
  "data": [
    {"compound": "Cc1cccc(C)c1NC1=NCCCS1", "note": "[xylazine]", "values": [
      {"measurement": "adverse effects leading to termination of human trials", "setting": "[1]", "value": "severe hypotension and central nervous system (CNS) depressant effects"},
      {"measurement": "sedation, respiration, blood pressure and heart rate effects", "setting": "[2]", "value": "significant sedation/decreased respiration and decreased blood pressure/heart rate"}
    ]},
    {"compound": "COC(=O)[C@@H]1[C@H]2C[C@H]3c4[nH]c5ccccc5c4CCN3C[C@@H]2CC[C@@H]1O", "note": "[yohimbine]", "values": [
      {"measurement": "doses supported for safe use in humans", "setting": "[3]", "value": "up to 60 mg"}
    ]}
  ]
}
